Measured values taken from PubChem BioAssay (NCI).
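1) Cells in 96-well plates. 2) Compound, 48 h, 5 concentrations. 3) Linear interpolation between surrounding doses. 4) Unreached endpoint = highest concentration. Abbreviation: GI50, concentration required for 50% inhibition of growth. TGI: concentration producing complete growth inhibition.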

What was measured:
Test in all cases: NCI anticancer screen, dose series, 48 h
SW-620 colon = tested on: SW-620 colon
HCC-2998 colon = tested on: HCC-2998 colon
MALME-3M melanoma = tested on: MALME-3M melanoma
A549 NSCLC = tested on: A549 NSCLC
RXF 393 renal = tested on: RXF 393 renal
DU-145 prostate = tested on: DU-145 prostate
MDA-MB-231 breast = tested on: MDA-MB-231 breast
HL-60(TB) leukemia = tested on: HL-60(TB) leukemia
NCI-H226 lung = tested on: NCI-H226 lung
SK-MEL-2 melanoma = tested on: SK-MEL-2 melanoma

| Compound | GI50 (SW-620 colon) [µM] | TGI (SW-620 colon) [µM] | GI50 (HCC-2998 colon) [µM] | TGI (HCC-2998 colon) [µM] | GI50 (MALME-3M melanoma) [µM] | TGI (MALME-3M melanoma) [µM] | GI50 (A549 NSCLC) [µM] | TGI (A549 NSCLC) [µM] | GI50 (RXF 393 renal) [µM] | TGI (RXF 393 renal) [µM] | GI50 (DU-145 prostate) [µM] | TGI (DU-145 prostate) [µM] | GI50 (MDA-MB-231 breast) [µM] | TGI (MDA-MB-231 breast) [µM] | GI50 (HL-60(TB) leukemia) [µM] | TGI (HL-60(TB) leukemia) [µM] | GI50 (NCI-H226 lung) [µM] | TGI (NCI-H226 lung) [µM] | TGI (SK-MEL-2 melanoma) [µM] | GI50 (SK-MEL-2 melanoma) [µM] |
| --- | --- | --- | --- | --- | --- | --- | --- | --- | --- | --- | --- | --- | --- | --- | --- | --- | --- | --- | --- | --- |
| CCOC(=O)c1cc(/C(=N\O)c2cc(OC)c(OC)c(OC)c2)n2cc(C)cc(C)c12 | 2.56 | > 100 | 5.78 | > 100 | 1.44 | 3.98 | 3.99 | > 100 | 1.95 | 5.26 | 3.67 | > 100 | 2.34 | 5.7 | 2.28 | 7.57 | – | – | – | – |
| CC(=O)OC1CC(O)C23COC(O)C1(C)C2CC(O)C1(C)C3C(=O)C(O)C2(C)C(c3ccoc3)CC3OC321 (stereo not given) | 0.0323 | > 100 | 0.42 | > 100 | – | – | 0.0674 | > 100 | > 100 | > 100 | 0.9 | > 100 | > 28.7 | > 100 | < 0.01 | > 100 | < 0.0188 | 18.4 | > 100 | – |
| CC(=O)OC1Oc2ccccc2-c2oc(=O)c(-c3cc4ccc(N(C)C)cc4oc3=O)cc21 (stereo not given) | 20.6 | > 100 | – | – | 3.7 | 11.1 | 12.5 | 36.9 | 3.54 | 15.2 | 12 | 27.7 | 13 | 32.1 | 8.16 | > 100 | 11.2 | 28.3 | 29.9 | 8.61 |
| NC(N)=NCCCn1c2c(c3ccccc3c1=O)C(=O)c1ccccc1-2 | 14.5 | 31 | 3.6 | 15.8 | 18.6 | 45.1 | 27.1 | > 100 | 7.82 | 42.4 | 7.59 | 22.9 | 15.8 | 46.7 | 23.9 | 81.3 | – | – | 33.6 | 19.5 |
| Cc1cc(SCC(=O)c2ccccc2)nc2ccccc12 | – | > 100 | – | – | – | > 100 | – | > 100 | – | > 100 | – | > 100 | – | > 100 | – | > 100 | – | > 100 | > 100 | – |
| COc1cc2oc(-c3ccc(O)cc3)cc(=O)c2c(OC)c1OC | – | > 100 | – | > 100 | – | > 100 | – | > 100 | – | > 100 | – | > 100 | – | > 100 | – | > 100 | – | > 100 | – | – |
| CCOC(=O)c1c(CN2CCN(c3ccccc3)CC2)n(-c2ccccc2)c2cc(Br)c(O)cc12 | 6.32 | 48 | 15.7 | 32.5 | 16.5 | 40.1 | 3.58 | > 100 | – | – | 12.5 | 28.2 | 15.7 | 33.1 | 4.12 | > 100 | 15.4 | 30.9 | 36.2 | 17.2 |
| CC/C=C\C[C@@H]1C/C=C2/C(=O)C=C[C@H]2C/C=C\CCCC(=O)O1 | 0.483 | 2.02 | 0.259 | 0.533 | 1.18 | 4.65 | 0.526 | 2.2 | 0.492 | 1.73 | 0.362 | 1.28 | 1.56 | 6.59 | 0.277 | 0.716 | – | – | 4.23 | 1.8 |
| CN(C)CCCn1c2c(c3ccccc3c1=O)C(=O)c1ccccc1-2 | 0.771 | 10.8 | – | – | 2.31 | 5.71 | 0.65 | 3.14 | 5.38 | 49.3 | 1.33 | 8.54 | 1.74 | 5.09 | 1.74 | 3.85 | 1.18 | 2.74 | > 100 | 13.1 |
| c1ccc(C2=NNC3c4ccccc4-c4ccccc4N3C2)cc1 (stereo not given) | – | > 100 | – | – | – | 83.1 | – | > 100 | – | > 100 | – | > 100 | – | > 100 | – | 6.91 | – | 71.7 | 45.8 | – |
| CCN(CC)CCN1CC(O)=C(c2nc(-c3ccc(Cl)cc3)cs2)C1=N | 1.91 | 3.8 | 1.95 | 3.91 | 1.69 | 3.22 | 3.62 | 17.8 | – | – | 7.26 | 62.4 | 1.97 | 4.1 | 1.5 | 3.5 | 1.85 | 3.88 | > 100 | 16.9 |
| CCN(CC)CCCC(C)Nc1c(C)cnc2cc(Cl)c(C)cc12 (stereo not given) | 10.6 | 25.7 | – | – | 14.9 | 29.7 | 15.1 | 30 | 8.75 | 26.6 | 12.8 | 27.8 | 2.71 | 10.4 | 3.19 | 21.2 | 4.57 | 15 | > 70.6 | 20.4 |
| CN(C)CCNC(=O)c1cccc(C(=O)Nc2ccccc2)c1[N+](=O)[O-] | – | > 100 | – | > 100 | – | > 100 | – | > 100 | – | – | – | > 100 | – | > 100 | – | > 100 | – | > 100 | > 100 | – |
